{
  "source": "patent US11622964B2",
  "about": "“Method for destroying cellular mechanical homeostasis and promoting regeneration and repair of tissues and organs, and use thereof” (INSTITUTE OF ZOOLOGY, CHINESE ACADEMY OF SCIENCES, priority 2018, dated 2023)",
  "type_in_all_cases": "in vivo, mice",
  "key": {"[1]": {"system": "bile duct ligation-induced fibrosis", "assay": "Bile duct ligation-induced hepatic fibrosis model", "experimental": "The ICR, C57Bl/6 mice used in the experiment are purchased from SPF (Beijing) Biotechnology Co., Ltd.; elbow tweezers, finger tweezers, scissors, needle holders, suture needles, suture threads are purchased from Asone Trading Co., Ltd.; antibiotics are purchased from Gibco (15240-062). 8 week-old female mice are used, and they are fasted for 24 hours before the experiment. The mice are anesthetized with 5% chloral hydrate, and intraperitoneally injected with 8 ml/kg. The mice are fixed after anesthesia, and an incision is made in the abdomen to expose the organs. The duodenum of the stomach end is found and gently pulled to find the bile duct, carefully peeling off the bile duct with tweezers, ligating the bile duct with suture thread, then adding antibiotics, and suturing to close the abdominal cavity. The mice are fasted for 12 hours after surgery. 14-20 days after surgery, the skin of the mice is observed to be yellow-green, and drug is administered to mice for treatment. The mice in the modeling group are evenly divided into two groups, and the mice of experimental group are intraperitoneally injected with (−)-blebbistatin. As for the administration method, (−)-blebbistatin is dissolved in DMSO; sequentially adding 2-5% DMSO (final concentration, volume ratio)+30% PEG400 (final concentration, volume ratio)+2% Tween 80 (final concentration, volume ratio), the mice of the control group are injected with a solvent without the small molecule but containing an equal amount of DMSO (denoted as “Con”)."}, "[2]": {"system": "CCl4-induced chronic severe hepatic fibrosis", "assay": "CCl4-induced chronic severe hepatic fibrosis model", "settings": "1 mg or 3 mg per kg per day, intraperitoneal or tail vein injection, 6-8 weeks", "experimental": "The ICR, C57Bl/6 mice used in the experiment are purchased from SPF (Beijing) Biotechnology Co., Ltd., carbon tetrachloride is purchased from Aladdin Reagent (Shanghai) Co., Ltd. (C131583-1L), and corn oil is purchased from Sigma (C8267). 8-10 week-old female mice are selected and housed in the barrier for one week, they are randomly divided into two groups, and respectively injected with CCl4/corn oil (a volume ratio of 1:2) and corn oil. The dose of CCl4 is 2 ml/kg, twice a week for […]. After 6 weeks, the mice are anesthetized with 5% chloral hydrate, and part of the hepatic lobe is taken out, fixing with 4% paraformaldehyde, dehydrating and immersing in wax, then staining with Sirius Red (YY-R20384-100ML) kit for fibrosis, wherein the collagenous fibers are red, as shown in FIG. 3B. After successful identification of the modeling, the drug administration is performed by intraperitoneal injection or tail vein injection. […] Further, quantitative PCR is performed to identify the expression of fibrosis-related genes Acta2 (myofibroblast marker), Col1a1 (representing type I collagen), Col1a2 (representing type I collagen), Col6a1 (representing collagen), Col6a2 (representing collagen), and Vim (representing fibroblasts), as shown in FIG. 3E and FIG. 3F (continued). […]"}, "[3]": {"system": "bleomycin-induced skin sclerosis", "assay": "Bleomycin-induced scleroderma model", "settings": "1-3 mg/kg/day intraperitoneal", "excerpt": "Scleroderma is a connective tissue disease characterized by localized or diffuse fibrosis of the skin and internal organs, thereby hardening and shrinking. The disease may cause multisystem injury, its exact cause and pathogenesis are still unclear, and there is no effective treatment means. […] One week after injection of bleomycin, the skin at the injection site on the back of mice begins to thicken and harden, and has poor elasticity; there is no change in hair growth until the end of the injection; meanwhile, induration and incrustation occurs at the injection site, accompanying with superficial ulcers. As for the shaved injection area on the back of the mice in the saline control group, the hair grows continuously, and no significant skin hardening and thickening phenomenon is observed, as shown in FIG. 7B. Treatment group (Bleb): intraperitoneal administration of myosin inhibitor (−)-blebbistatin (1-3 mg/kg/day, dissolved in 2-5% DMSO+30% PEG400+2% Tween 80+ddH2O); control group (con): without (−)-blebbistatin but containing the same amount of DMSO. […] Further experiments confirm that the myosin inhibitor (−)-blebbistatin promotes melanin accumulation in the induration zone and the growth of new hair, as shown in FIG. 7C."}},
  "data": [
    {"smiles": "Cc1ccc2c(c1)C(=O)[C@]1(O)CCN(c3ccccc3)C1=N2", "note": "[(−)-blebbistatin]", "values": [
      {"measurement": "accumulation of collagenous fibers (Sirius Red)", "setting": "[1]; after 15 days of treatment", "value": "significantly inhibited"},
      {"measurement": "proliferation of myofibroblasts (α-SMA staining)", "setting": "[1]; after 15 days of treatment", "value": "significantly inhibited"},
      {"measurement": "accumulation of collagenous fibers (Sirius Red)", "setting": "[1]; after 30 days of treatment", "value": "significantly inhibits"},
      {"measurement": "hepatocyte proliferation (Ki-67 staining)", "setting": "[1]; during the bile duct ligation process", "value": "promotes"},
      {"measurement": "state of the mice", "setting": "[1]; intraperitoneal injection", "value": "more active and energetic"},
      {"measurement": "accumulation of collagenous fibers (Sirius red, Col I staining)", "setting": "[2]", "value": "inhibits"},
      {"measurement": "activation of myofibroblasts", "setting": "[2]", "value": "inhibits"},
      {"measurement": "FGF9 expression (immunofluorescence)", "setting": "[3]", "value": "more FGF9 is expressed"},
      {"measurement": "KRT17 positive cells relative to KRT18 positive cells (immunostaining)", "setting": "[3]", "value": "much more"},
      {"measurement": "NeuN expression in the induration zone (neural fate)", "setting": "[3]", "value": "expressed in some cells"},
      {"measurement": "accumulation of mesenchymal fibers (H&E and Masson staining)", "setting": "[3]", "value": "significantly reduces"},
      {"measurement": "epidermal and dermal thickness", "setting": "[3]", "value": "significantly reduces"},
      {"measurement": "hair follicle cell proliferation (Ki-67 staining)", "setting": "[3]", "value": "promotes"},
      {"measurement": "hair follicle regeneration (KRT17/PCNA co-immunostaining)", "setting": "[3]", "value": "promotes hair follicle regeneration"},
      {"measurement": "melanin accumulation in the induration zone and growth of new hair", "setting": "[3]", "value": "promotes"},
      {"measurement": "number of hair follicles or glands", "setting": "[3]", "value": "promotes"},
      {"measurement": "degree of induration and incrustation", "setting": "[3]; after 3 weeks of treatment", "value": "significantly reduced"}
    ]}
  ]
}
